US4358607A, “Chloro-substituted benzospiro cyclopropane carboxylic acid” (American Cyanamid Co., priority 1978, dated 1982)
Where “and” joins values, the source holds several entries; their conditions need not be identical. Equal values may be shown once.

Legend:
Type in all cases: in vivo
[1] = tested on: Two-Spotted Spider Mite [Tetranychus urticae]; assay: Phosphate-Resistant Strain of Two-Spotted Spider Mite test
Experimental: Phosphate-Resistant Strain of Two-Spotted Spider Mite [Tetranychus urticae (Koch)].
Sieva lima bean plants, with primary leaves 7.6 to 10 cm long, are infested with about 100 adult mites per leaf 4 hours before use in this test, in order to allow egg-laying before treatment. The infested plants are dipped for 3 seconds with agitation into a 300 ppm solution, and the plants set in the hood to dry. After 2 days at 26.7° C., the adult mite mortality is estimated on one leaf under a 10X stereoscopic microscope. The other leaf is left on the plant an additional 5 days and then examined at 10X power to estimate the kill of eggs and of newly-hatched nymphs, giving a measure of ovicidal and residual action, respectively.
(§1) The rating system employed in these tests is as follows:
(§2) Compounds rated active (8 or 9) are further tested at reduced concentrations in 50% acetone: 50% water.

[2] = tested on: Southern Armyworm [Spodoptera eridania]; assay: Southern Armyworm test; conditions: 2 days
Experimental: Southern Armyworm [Spodoptera eridania (Cramer)].
A sieva lima bean plant with just the primary leaves expanded to 7.6 to 10 cm is dipped for 3 seconds with agitation in a 1000 ppm solution and set in a hood to dry. Following this, one leaf is placed in a 10 cm petri dish which has a moist filter paper in the bottom and 10 third-instar armyworm larvae about 1 cm long. The dish is covered and held at 26.7° C. After 2 days mortality counts and estimates of the amount of feeding are made. Compounds showing partial kill and/or inhibition of feeding are held for an extra day for further observations.
as §1, §2

[3] = tested on: Mexican Bean Beetle (Epilachna varivestis); assay: Mexican Bean Beetle test; conditions: 300 ppm
Description: Mexican Bean Beetle (Epilachna varivestis Mulsant)
Sieva lima bean plants (2 per pot) with primary leaves 7.6 to 10 cm long, are dipped in a 300 ppm solution and set in a hood to dry. One leaf is removed from the plant and placed in a 10 cm petri dish containing a moist filter paper on the bottom and 10 last-instar larvae (13 days from hatching).
The day after treatment, another leaf is removed from the plant and fed to the larvae after removing the remains of the original leaf. Two days after treatment, the third leaf is fed to the larvae, this usually being the last needed. The fourth leaf is used on the third day after treatment if the larvae have not finished feeding. The test is now set aside and held until adults have emerged, usually about 9 days after treatment began. After emergence is complete, each dish is examined for dead larvae, pupae or adults; deformed pupae or adults; larval-pupal intermediates or pupal-adult intermediates; or any other interference with normal molting, transformation and emergence of pupae or adults.
as §1, §2

[4] = tested on: Boophilus microplus larvae; assay: Control of Boophilus microplus larvae; conditions: Rhipicephalus microplus, 48 h, read-out: Percent Mortality of Boophilus microplus
Experimental: Twenty larvae are enclosed in a pipet sealed at one end with a gauze material, and a solution, containing the test compound at the concentrations given, is then drawn through the pipet with a vacuum hose simulating a spray system. The ticks are then held for 48 hours at room temperature, and percent mortality rates are then determined.

[5] = tested on: Boophilus microplus; assay: Control of Ixodidae: engorged adult female ticks, reduction in viable egg masses
Experimental: The compound to be tested is dissolved in a 35% acetone/65% water mixture in amounts sufficient to provide the concentrations indicated in Table I below. Ten ticks per treatment are used and they are immersed in the test solution for three to five minutes, then removed and held in incubators for two to three weeks at 28° C. Counts of ticks laying eggs are then made and recorded. Eggs which were laid are placed in containers and kept for one month to observe hatching and to determine chemosterilant effect.
Percent reduction in viable egg masses is believed to be indicative of one or more of the following mechanisms:
2. Suppression of fecundity.
3. Chemosterilant effect.

[6] = tested on: Malaria Mosquito (Anopheles quadrimaculatus); assay: Malaria Mosquito egg and larvae test
Experimental: Malaria Mosquito (Anopheles quadrimaculatus say) egg and larvae test. One ml of a 300 ppm solution is pipetted into a 400 ml beaker containing 250 ml of deionized water and stirred with the pipette, giving a concentration of 1.2 ppm. A wax paper ring 0.6 cm wide to fit inside the beaker is floated on the surface of the test solution to keep the eggs from floating up the meniscus curve and drying out on the side of the glass. A spoon made of screen is used to scoop up and transfer about 100 eggs (0-24 hours old) into the test beaker. After two days at 26.7°C. observations of hatching are made. This includes kill of eggs or inhibition of hatch, kill of newly hatched larvae, or delayed hatch. Additional observations are made after another day for the same effects. The rating system employed in these tests is as follows: Compounds rated active (8 or 9) are further tested at reduced concentrations in 50% acetone: 50% water.

[7] = tested on: Tobacco Budworm [Heliothis virescens] eggs; assay: Tobacco Budworm egg test; conditions: 300 ppm, 3 days
Experimental: (§3) Tobacco Budworm [Heliothis virescens (Fabricus)].
(§4) A cotton plant with 2 true leaves expanded is dipped for 3 seconds with agitation in a 300 ppm solution. A 1.25 to 2 cm square of cheesecloth with about 50 to 100 budworm eggs 0-24 hours old is also dipped in the test solution and placed on one leaf to dry. The leaf with the treated budworm eggs is removed from the plant and placed in a 236.6 ml (8-Oz) Dixie cup with a wet 5 cm piece of dental wick and covered with a lid. The other leaf is placed in a similar cup with a wick and a piece of cheesecloth infested with 50-100 newly hatched larvae is added before covering the cup with a lid. After 3 days at 26.7° C., observations of egg hatch are made as well as kill of newly hatched larvae, any inhibition of feeding, or interference of any sort with normal development.
as §1, §2

[8] = tested on: Tobacco Budworm [Heliothis virescens] larvae; assay: Tobacco Budworm newly hatched larvae test; conditions: 3 days
Experimental: as §3, §4, §1, §2

[9] = tested on: Western Potato Leaf Hopper (Empoasca abrupta); assay: Western Potato Leaf Hopper test; conditions: 2 days
Description: Western Potato Leaf Hopper (Empoasca abrupta DeLong)
A lima bean plant with the primary leaf expanded to 7.6 to 10 cm is dipped into a 100 ppm solution and set in a hood to dry. A 2.5 cm piece of the tip of 1 leaf is cut off and placed in a 10 cm petri dish with a moist filter paper in the bottom. (In practice, this is usually cut off the tip of a plant from the Mexican bean beetle tests using a bean leaf dipped in the needed solution). From 3 to 10 second-instar nymphs are tapped from the culture plants into the test dish and rapidly covered. Mortality counts are made after two days at 26.7° C.
as §1, §2

[10] = tested on: Malaria Mosquito (Anopheles quadrimaculatus) adult; assay: Malaria Mosquito Adult Test; conditions: 1 day
Experimental: Malaria Mosquito (Anopheles quadrimaculatus Say) Adult Test
Ten ppm solutions are poured into wide-mouth 46.2 ml jars each containing a microscope slide. The slides are removed from the test solution with forceps and laid horizontally to dry on a wide-mouth 118.4 ml bottle. When dry, they are placed in the same 118.4 ml bottle and ten 4 to 5-day old mosquitoes of mixed sexes are added to each bottle. A piece of cotton gauze held on by an elastic band serves as a lid and a wad of cotton soaked in 10% honey solution serves as food. Mortality counts are made after 1 day at 26.7° C.
as §1, §2

[11] = tested on: Bean Aphid (Aphid fabae); assay: Bean Aphid test; conditions: 1 day
Experimental: Bean Aphid (Aphid fabae Scopoli).
Five cm fiber pots, each containing a nasturtium plant 5 cm high and infested with 100 to 500 aphids 2 days earlier are placed on a 4 rpm turntable and sprayed with a 100 ppm solution of 2 revolutions with a No. 154 DeVilbiss Atomizer at 1.4 kg/cm^2 air pressure. The spray tip is held about 15 cm from the plants and the spray directed so as to give complete coverage of the aphids and the plants. The sprayed plants are laid on their sides on white enamel trays. Mortality estimates are made after 1 day at 26.7° C.
as §1, §2

[12] = tested on: Tobacco Budworm [Heliothis virescens] third instar; assay: Tobacco Budworm third instar test; conditions: 3 days
Experimental: Tobacco Budworm [Heliothis virescens (Fabricius)]. Third instar. Three cotton plants with just expanded cotyledons are dipped in a 1000 ppm solution, and placed in a hood to dry. When dry, each cotyledon is cut in half and 10 are each placed in a 29.6 ml plastic medicine cup containing a 1.25 cm dental wick saturated with water, and one third-instar budworm larva is added. The cup is capped and held for 3 days at 26.7° C., after which mortality counts are made. The rating system employed in these tests is as follows: Compounds rated active (8 or 9) are further tested at reduced concentrations in 50% acetone: 50% water.

[13] = tested on: Cabbage Looper [Trichoplusia ni]; assay: Cabbage Looper test; conditions: 2 days
Experimental: Cabbage Looper. [Trichoplusia ni (Hubner)].
A primary leaf of a cotton plant is dipped in the test solution and agitated for 3 seconds. It is then set in a hood to dry. Following this, the leaf is placed in a 10 cm petri dish containing a moist filter paper at the bottom and 10 third-instar loopers. The dish is covered and held at 26.7° C. After 2 days, mortality counts and estimates of feeding damage are recorded. Those materials showing partial kill and/or inhibition of feeding are held for another day for further observations.
as §1, §2

## CC1(C)C(C(=O)OCc2cccc(Oc3ccccc3)c2)C12C=C(Cl)c1ccccc12 (centres unmarked) [drawing 12]
[1]; 100 ppm
  Activity rating, Phosphate Resistant Mites: 0 (0-4% killed or affected)
[1]; 300 ppm
  Activity rating, Phosphate Resistant Mites: 8 (86-95% mortality)
[2]; 10 ppm
  Insecticidal activity rating, Southern Armyworms: 0 (0-4% killed or affected)
[2]; 100 ppm
  Insecticidal activity rating, Southern Armyworms: 9 (100% mortality)
[2]; 1000 ppm
  Insecticidal activity rating, Southern Armyworms: 9 (100% mortality)
[3]
  Insecticidal activity rating, Mexican Bean Beetles: 9 (100% mortality)

## CC1(C)C(C(=O)OCc2cccc(Oc3ccccc3)c2)C12C=C(Cl)c1ccccc12 (centres unmarked) [drawing 8]
[4]; 100 ppm
  mortality at 100 ppm: 100%

## CC1(C)C(C(=O)OC(C#N)c2cccc(Oc3ccccc3)c2)C12C=C(Cl)c1ccccc12 (centres unmarked) [drawing 7]
[4]; 0.012 ppm
  mortality at 0.012 ppm: 0%
[4]; 0.05 ppm
  mortality at 0.05 ppm: 0%
[4]; 0.78 ppm
  mortality at 0.78 ppm: 80 to 100%

## CC1(C)C(C(=O)OC(C#N)c2cccc(Oc3ccccc3)c2)C12C=C(Cl)c1ccccc12 (centres unmarked) [drawing 5]
[5]; 125 ppm
  Percent reduction in viable egg masses: 98%

## CC1(C)C(C(=O)OCc2cccc(Oc3ccccc3)c2)C12C=C(Cl)c1ccccc12 (centres unmarked) [drawing 10]
[6]; 0.04 ppm
  Insecticidal activity rating, Mosquito Larvae: 9 (100% mortality)
[6]; 0.4 ppm
  Insecticidal activity rating, Mosquito Larvae: 9 (100% mortality)
[6]; 1.2 ppm
  Insecticidal activity rating, Mosquito Larvae: 9 (100% mortality)
[7]
  Insecticidal activity rating, Tobacco Budworm Eggs: 0 (0-4% killed or affected)
[8]; 10 ppm
  Insecticidal activity rating, Tobacco Budworm Larvae: 9 (100% mortality)
[8]; 100 ppm
  Insecticidal activity rating, Tobacco Budworm Larvae: 9 (100% mortality)
[8]; 300 ppm
  Insecticidal activity rating, Tobacco Budworm Larvae: 9 (100% mortality)

## CC1(C)C(C(=O)OCc2cccc(Oc3ccccc3)c2)C12C=C(Cl)c1ccccc12 (centres unmarked) [drawing 6]
[5]; 15 ppm
  Percent reduction in viable egg masses: 0%
[5]; 31 ppm
  Percent reduction in viable egg masses: 72.7%
[5]; 62 ppm
  Percent reduction in viable egg masses: 83.9%
[5]; 125 ppm
  Percent reduction in viable egg masses: 91.9%

## CC1(C)C(C(=O)OC(C#N)c2cccc(Oc3ccccc3)c2)C12C=C(Cl)c1ccccc12 (centres unmarked) [drawing 9]
[6]; 0.04 ppm
  Insecticidal activity rating, Mosquito Larvae: 9 (100% mortality)
[6]; 0.4 ppm
  Insecticidal activity rating, Mosquito Larvae: 9 (100% mortality)
[6]; 1.2 ppm
  Insecticidal activity rating, Mosquito Larvae: 9 (100% mortality)
[7]
  Insecticidal activity rating, Tobacco Budworm Eggs: 0 (0-4% killed or affected)
[8]; 10 ppm
  Insecticidal activity rating, Tobacco Budworm Larvae: 9 (100% mortality)
[8]; 100 ppm
  Insecticidal activity rating, Tobacco Budworm Larvae: 9 (100% mortality)
[8]; 300 ppm
  Insecticidal activity rating, Tobacco Budworm Larvae: 9 (100% mortality)

## CC1(C)C(C(=O)OC(C#N)c2cccc(Oc3ccccc3)c2)C12C=C(Cl)c1ccccc12 (centres unmarked) [drawing 13]
[9]; 10 ppm
  Insecticidal activity rating, Leaf Hopper: 9 (100% mortality)
[9]; 100 ppm
  Insecticidal activity rating, Leaf Hopper: 9 (100% mortality)
[10]; 1 ppm
  Insecticidal activity rating, Mosquito, Adult: 7 (71-85% mortality) and 6 (61-70% mortality) and 9 (100% mortality)
[10]; 10 ppm
  Insecticidal activity rating, Mosquito, Adult: 9 (100% mortality)
[11]; 1 ppm
  Insecticidal activity rating, Bean Aphids: 9 (100% mortality)
[11]; 10 ppm
  Insecticidal activity rating, Bean Aphids: 9 (100% mortality)
[11]; 100 ppm
  Insecticidal activity rating, Bean Aphids: 9 (100% mortality)
[12]; 100 ppm
  Insecticidal activity rating, Tobacco Budworm 3rd Instar: 0 (0-4% killed or affected)
[12]; 1000 ppm
  Insecticidal activity rating, Tobacco Budworm 3rd Instar: 5 (51-60% mortality)
[13]; 100 ppm
  Insecticidal activity rating, Cabbage Looper: 9 (100% mortality)
[13]; 1000 ppm
  Insecticidal activity rating, Cabbage Looper: 9 (100% mortality)

## CC1(C)C(C(=O)OCc2cccc(Oc3ccccc3)c2)C12C=C(Cl)c1ccccc12 (centres unmarked) [drawing 14]
[9]; 10 ppm
  Insecticidal activity rating, Leaf Hopper: 9 (100% mortality)
[9]; 100 ppm
  Insecticidal activity rating, Leaf Hopper: 9 (100% mortality)
[10]; 10 ppm
  Insecticidal activity rating, Mosquito, Adult: 0 (0-4% killed or affected)
[11]; 1 ppm
  Insecticidal activity rating, Bean Aphids: 0 (0-4% killed or affected)
[11]; 10 ppm
  Insecticidal activity rating, Bean Aphids: 9 (100% mortality)
[11]; 100 ppm
  Insecticidal activity rating, Bean Aphids: 9 (100% mortality)
[12]; 100 ppm
  Insecticidal activity rating, Tobacco Budworm 3rd Instar: 5 (51-60% mortality)
[12]; 1000 ppm
  Insecticidal activity rating, Tobacco Budworm 3rd Instar: 9 (100% mortality)
[13]; 100 ppm
  Insecticidal activity rating, Cabbage Looper: 9 (100% mortality)
[13]; 1000 ppm
  Insecticidal activity rating, Cabbage Looper: 9 (100% mortality)
